According to US20210275447A1, “SUSTAINED-RELEASE OPHTHALMIC PHARMACEUTICAL COMPOSITIONS AND USES THEREOF” (TAIWAN LIPOSOME CO., LTD., priority 2018, published 2021):
Where a name gives a salt, the structure may show the parent alone.

What was measured:
[1] = Drug loading of liposomes by remote loading: drug to lipid molar ratio and encapsulation efficiency; assay type: physicochemical; details: 300 mM AS, 2 mg/mL drug
Method: The dry lipid was hydrated in a trapping agent, 300 mM ammonium sulfate (AS), for 30 min at the temperature above the transition temperature to form the MLVs. […] After extrusion, unencapsulated trapping agent was removed by dialysis method or diafiltration method against 9.4% sucrose solution or 0.9% NaCl to create a polyatomic ion gradient between the inner aqueous phase and the outer aqueous phase of the empty liposomes.
A reaction mixture containing 10.0 mg/mL of sunitinib (LC Laboratories, USA), empty liposomes (with 20.0 mM of lipids prepared according to Example 1), and 40 mM histidine buffer (pH 7) was incubated at 40° C. for 15 min The unencapsulated sunitinib of the reaction mixture was removed by a Sephadex™ G-50 Fine gel (GE Healthcare, USA) or dialysis bag (Spectrum Labs, USA) against a 9.4% sucrose solution to obtain a liposomal sunitinib formulation. The encapsulated sunitinib concentration and the lipid concentration of the liposomal sunitinib formulation were measured using an ultraviolet/visible (UV/Vis) spectrophotometer to calculate the drug to lipid molar ratio (D/L) of the liposomal sunitinib formulation.
The encapsulation efficiency was calculated by comparing the drug to lipid molar ratio (D/L) of the liposomal sunitinib formulation to the nominal D/L of the reaction mixture, which is dividing the initial added concentration of sunitinib by the initial added concentration of lipid of empty liposome.
An initial loading concentration of 4.0 mg/mL of sunitinib or sunitinib malate was mixed with the empty liposomes according to the procedures of Example 2.

[2] = In vitro release through dialysis bag in rabbit vitreous humor; assay type: in vitro ADME; details: PBS pH 7.4, 37° C., released immediately, FIG. 1
Method: Each dialysis bag contained 950 μL of rabbit vitreous humor (Pel-Freez Biologicals, USA) and both ends of the dialysis bags were then sealed. Each dialysis bag was immersed in 25 mL of PBS at pH 7.4 in a 50-mL centrifuge tube and incubated in a water bath at 37±1° C. for 24 hours. At designated time points after incubation (1, 2, 4, 6, 24, 48, 122, 146 and 168 hours), 0.5 mL aliquot from the 25 mL PBS inside each centrifuge tube was sampled and 0.5 mL of fresh PBS was added to replenish the sampled aliquot. Drug concentrations of the sampled aliquots at each time point were analyzed using high performance liquid chromatography (HPLC) to create the in vitro release profile of the liposomal composition.

[3] = liposomes DOPC/cholesterol (66.7/33.3)
[4] = liposomes POPC/cholesterol (66.7/33.3)

Row | Compound | EE (%), encapsulation efficiency [1, 3] [%] | Purified D/PL (mole/mole) [1, 3] [mole/mole] | EE (%), encapsulation efficiency [1, 4] [%] | Purified D/PL (mole/mole) [1, 4] [mole/mole] | time after which release reached a plateau [2] [h]
1 | Cc1ccc(NC(=O)c2ccc(CN3CCN(C)CC3)cc2)cc1Nc1nccc(-c2cccnc2)n1 [Imatinib, imatinib mesylate] | 91.3 | 1.24 | 66.6 | 0.90 | –
2 | CCN(CC)CCNC(=O)c1c(C)[nH]c(/C=C2\C(=O)Nc3ccc(F)cc32)c1C [free sunitinib, sunitinib] | – | – | – | – | 6
